Our source for the ring closure, isolated yield values is paper PMC10863392.

This data set is described as follows: Intramolecular Friedel-Crafts arylation (C(vinyl)-C(aryl) bond) of vinyl cation from vinyl tosylate; [Li]+[B(C6F5)4]- 10 mol%, LiH 5 equiv. The note with it: 1,2-dichlorobenzene, 16.7 mM, 140.0 °C.

As to `CC(C)=C1c2ccccc2CCSc2ccccc21` [SI-14 -> 8], for the setting “from CC(C)=C(OS(=O)(=O)c1ccc(C)cc1)c1ccccc1SCCc1ccccc1, 8-membered ring”, the ring closure, isolated yield came out at 46%.
In the case of `COc1ccc2c(c1)N(S(=O)(=O)c1ccc(C)cc1)CCc1ccccc1C2=C(C)C` [SI-46 -> 16], the ring closure, isolated yield (from COc1ccc(C(OS(=O)(=O)c2ccc(C)cc2)=C(C)C)c(N(CCc2ccccc2)S(=O)(=O)c2ccc(C)cc2)c1, 8-membered ring, 24.0 h) was 78%.
With `CC1=C(c2ccccc2)c2ccccc2CCCC1` [precursor of 20 (n.d.)], the ring closure, isolated yield (from CC(CCCCc1ccccc1)=C(OS(=O)(=O)c1ccc(C)cc1)c1ccccc1, 8-membered ring) stood at 0%.
For the compound `CC(C)=C1c2ccccc2CCCc2ccccc21` [SI-20 -> 9], the ring closure, isolated yield (from CC(C)=C(OS(=O)(=O)c1ccc(C)cc1)c1ccccc1CCCc1ccccc1, 8-membered ring) is 81%.
Take `Cc1ccc(S(=O)(=O)N2CCCc3ccc(C(F)(F)F)cc3C(=C3CCCCC3)c3ccccc32)cc1` [precursor of 14 (n.d.)]: the ring closure, isolated yield (from Cc1ccc(S(=O)(=O)OC(=C2CCCCC2)c2ccccc2N(CCCc2ccc(C(F)(F)F)cc2)S(=O)(=O)c2ccc(C)cc2)cc1, 9-membered ring) was 0%.
Take `Cc1ccc(S(=O)(=O)N2CCc3c(Cl)cccc3C(=C3CCCCC3)c3ccccc32)cc1` [1 -> 2]: the ring closure, isolated yield (from Cc1ccc(S(=O)(=O)OC(=C2CCCCC2)c2ccccc2N(CCc2ccccc2Cl)S(=O)(=O)c2ccc(C)cc2)cc1, 8-membered ring, 18.0 h) worked out at 73%.
As to `CC(C)=C1c2cc(O[Si](C)(C)C(C)(C)C)ccc2CCN(S(=O)(=O)c2ccc(C)cc2)c2ccccc21` [SI-33 -> 13], the ring closure, isolated yield (from CC(C)=C(OS(=O)(=O)c1ccc(C)cc1)c1ccccc1N(CCc1ccc(O[Si](C)(C)C(C)(C)C)cc1)S(=O)(=O)c1ccc(C)cc1, 8-membered ring) was determined as 79%.
As to `CC(C)=C1c2ccccc2CCN(S(=O)(=O)c2ccc(C)cc2)c2sc3c(c21)CCCC3` [SI-42 -> 19 (120 C)], the ring closure, isolated yield (from CC(C)=C(OS(=O)(=O)c1ccc(C)cc1)c1c(N(CCc2ccccc2)S(=O)(=O)c2ccc(C)cc2)sc2c1CCCC2, 8-membered ring, 20.0 h) came out at 85%.
In the case of `CC(C)=C1c2ccccc2CCCOc2ccccc21` [SI-45 -> 10], for the setting “from CC(C)=C(OS(=O)(=O)c1ccc(C)cc1)c1ccccc1CCCOc1ccccc1, 9-membered ring, 48.0 h”, the ring closure, isolated yield came out at 65%.
Turning to `CC(C)=C1c2ccccc2CCN(S(=O)(=O)c2ccc(C)cc2)c2ccccc21` [SI-16 -> 5], the ring closure, isolated yield (from CC(C)=C(OS(=O)(=O)c1ccc(C)cc1)c1ccccc1N(CCc1ccccc1)S(=O)(=O)c1ccc(C)cc1, 8-membered ring, 36.0 h) was 56%.
As to `CC(C)=C1c2ccccc2CCN(S(=O)(=O)c2ccc(C)cc2)c2cc(C(F)(F)F)ccc21` [precursor of 17 (n.d., 160 C)], where the note is “from CC(C)=C(OS(=O)(=O)c1ccc(C)cc1)c1ccc(C(F)(F)F)cc1N(CCc1ccccc1)S(=O)(=O)c1ccc(C)cc1, 8-membered ring”, the ring closure, isolated yield came out at 0%.
As to `COc1ccc(CC2Cc3cc(OC)ccc3C(=C(C)C)c3ccccc3S2)cc1` (stereo not drawn) [28 -> 29a (NMR yield)], the ring closure, isolated yield (from COc1ccc(CC(Cc2cccc(OC)c2)Sc2ccccc2C(OS(=O)(=O)c2ccc(C)cc2)=C(C)C)cc1, 8-membered ring) was determined as 25%.
In the case of `Cc1ccc(S(=O)(=O)N2CCc3sccc3C(=C3CCCCC3)c3ccccc32)cc1` [SI-38 -> 18], the ring closure, isolated yield (from Cc1ccc(S(=O)(=O)OC(=C2CCCCC2)c2ccccc2N(CCc2cccs2)S(=O)(=O)c2ccc(C)cc2)cc1, 8-membered ring, 20.0 h) came to 73%.
As for `CC(C)=C1c2ccccc2CCCN(S(=O)(=O)c2ccc(C)cc2)c2ccccc21` [SI-11 -> 6], the ring closure, isolated yield (from CC(C)=C(OS(=O)(=O)c1ccc(C)cc1)c1ccccc1N(CCCc1ccccc1)S(=O)(=O)c1ccc(C)cc1, 9-membered ring, 36.0 h) was found to be 82%.
`Cc1ccc(S(=O)(=O)N2CCCCc3ccccc3C(=C3CCCCC3)c3ccccc32)cc1` [precursor of 7 (n.d.)]: the ring closure, isolated yield (from Cc1ccc(S(=O)(=O)OC(=C2CCCCC2)c2ccccc2N(CCCCc2ccccc2)S(=O)(=O)c2ccc(C)cc2)cc1, 10-membered ring) came to 0%.
In the case of `COc1ccc2c(c1)C(=C1CCCCC1)c1ccccc1N(S(=O)(=O)c1ccc(C)cc1)CC2` [SI-27 -> 12], under “from COc1ccc(CCN(c2ccccc2C(OS(=O)(=O)c2ccc(C)cc2)=C2CCCCC2)S(=O)(=O)c2ccc(C)cc2)cc1, 8-membered ring”, the ring closure, isolated yield was 76%.
On to `Cc1ccc(S(=O)(=O)N2CCc3ccc(N(C)C)cc3C(=C3CCCCC3)c3ccccc32)cc1` [SI-24 -> 11], for which the ring closure, isolated yield (from Cc1ccc(S(=O)(=O)OC(=C2CCCCC2)c2ccccc2N(CCc2ccc(N(C)C)cc2)S(=O)(=O)c2ccc(C)cc2)cc1, 8-membered ring) was 62%.
For the compound `Cc1ccc(S(=O)(=O)N2CCc3ccc(Br)cc3C(=C3CCCC3)c3ccccc32)cc1` [SI-36 -> 15], the ring closure, isolated yield (from Cc1ccc(S(=O)(=O)OC(=C2CCCC2)c2ccccc2N(CCc2ccc(Br)cc2)S(=O)(=O)c2ccc(C)cc2)cc1, 8-membered ring) was 79%.
